# Test results published in patent US20060135415A1, “Immunomodulation and effect on cell processes relating to serotonin family receptors and the blood-brain barrier” (priority 2002, published 2006).
# “Also recorded” adds a separate entry of the source.
# Columns and labels:
# [1] = test system: ConA stimulated human lymphocytes; experiment: Human mitogenic (ConA) stimulation, 3H-thymidine incorporation; format: cell-based; details: for activation / proliferative response: 5 μg/ml ConA, harvest 72 hours, drug titration (FIGS. 7A, 8A, 9A, 17, 33)
# Protocol: Blood from healthy volunteers was drawn using venipuncture, using Vacutainer collection sets and heparinized collection vials. The blood was diluted 1:1 using HBSS to a total volume of 30 ml in 50 ml conical tubes (Fisher Scientific, Co., Pittsburgh, Pa.). […] Cells from the buffy coats were collected and the residual Histopaque was washed away using repeated centrifugations in HBSS. After washes, cells were resuspended at 5 million cells per ml in RPMI, supplemented with 2% FBS. To remove adherent cells, the suspension was plated onto a 6 well flat-bottom plate (Corning Costar), 3 ml/well, and incubated for 2 hours at 37° C., 5% CO2. Non-adherent cells were harvested after this incubation, were counted and resuspended in RPMI supplemented with 10% human serum (Sigma).
# All drugs were pre-plated before the cell suspension was added onto each well of a 96-well round-bottom plate. All experimental conditions were assayed in at least triplicate. Cells suspended in RPMI supplemented with 10% human serum were plated at 100,000 cells per well to a final volume of 200 μl. […] Control samples received no ConA stimulation. The plates were incubated at 37° C. and 5% CO2.
# [2] = test system: RPMI 8226 multiple myeloma cells; experiment: RPMI 8226 cell viability and proliferation (trypan blue, MTT, 3H-thymidine); format: cell-based, human; details: 3H-thymidine uptake, drug titration (FIGS. 19-25, 31, 32)
# Protocol: The human plasmacytoma (multiple myeloma) cell line, RPMI 8226 (American Type Culture Collection, Manassas, Va.), was cultured in RPMI 1640 supplemented with 10 mM HEPES, 1 mM sodium pyruvate, 4.5 g/L glucose, 1.5 g/L bicarbonate and 20% FBS (non-heat inactivated).
# Cell proliferation was assayed by three methods—Trypan Blue Exclusion was used to quantify the number of viable cells in culture; 3-(4,5-dimethylthiazol-2-yl)-2,5-diphenyl tetrazolium bromide (MTT) reduction was used to assay mitochondrial activity (and thus cell viability); and ^3H-Thymidine uptake was employed to assay for active DNA synthesis.
# Three separate indicators of cell proliferation were employed to study the effects of 5-HT receptor modulating agents on the human multiple myeloma cell line, RPMI 8226. Cells were plated at 4 separate densities and were treated with LY53587 (an antagonist of the 5-HT2A/2B/2C receptors) at a range of concentrations. The exclusion of trypan blue dye was used as an indicator of cell viability. Cell numbers were then plotted against the concentration of drug added.
# MTT reduction was also used as an indicator of cell viability (more specifically, mitochondrial activity). Absorbance values at OD570 were then plotted against drug concentration. Finally, DNA synthesis was assayed, through the measurement of ^3H-thymidine uptake, and counts per minute (CPMs) were plotted against drug concentration.
# Culturing and administration of drugs and ^3H-thymidine were performed as described elsewhere herein.
# RPMI-8226 cells = experiment: Cytospin histochemistry (H&E, bis-benzamide) for chromatin; format: cell-based, human; details: 9 hour treatments, 50 μM SB compounds, 2 μM camptothecin (FIGS. 28, 29)
# Protocol: 2.0×10^5 RPMI-8226 cells were cultured, in 6-well culture plates, in the presence of the indicated drug concentrations, in a total of 5 mL RPMI-1640 supplemented with 10% FBS. Each well was harvested in its entirety and divided into two identical samples for cytospins.
# 1.0×10^5 RPMI-8226 cells from each treatment group were loaded into Cyto-funnels and centrifuged at 500 rpm for 4 minutes with medium acceleration. Slides were then fixed through graded methanol in PBS (100%, 5 minutes; 80%, 5 minutes; 50%, 5 minutes), washed for 5 minutes in PBS and stored in PBS at 4° C. until stained.
# Cytospun slides were stained with Hematoxylin and Eosin, followed by the nuclear stain, bis-benzamide, rinsed and mounted according to standard staining protocols. Slides were visualized under both brightfield and fluorescent light to generate matched images of the same slide field (see, e.g., FIGS. 28 and 29).
# [3] = test system: allogeneic stimulation of human lymphocytes; experiment: Human mixed lymphocyte reaction (allogeneic stimulation), 3H-thymidine; format: cell-based; details: allogeneic stimulation, harvest 120 hours, drug titration (FIGS. 7B, 8B, 9B)
# Description: Blood from two healthy, non-related, donors was taken as described above. Peripheral blood mononuclear cells were isolated as described previously elsewhere. The adherent cells were separated from the suspension cells as described previously for both donors. Suspension cells from both donors (donors A and B) were used as responders. The remaining adherent cells from each of the donors were used as stimulators against a different donor (suspension A against adherent B and adherent A against suspension B). The stimulator cells were irradiated at 35 Gy. Drugs were pre-plated onto 96 well, U-bottom plates in triplicate. 200,000 “stimulator” cells in RPMI supplemented with 10% human serum were then plated in each well. 200,000 “responder” cells in the same medium were then plated over stimulators to a final volume of 200 μl/well. Background controls received either no stimulator cells, or no responder cells. The plates were incubated at 37° C. and 5% CO2. 1 μCi of tritiated thymidine was added to each well after 4.5 days, and the plates were harvested 12 hours later.
# [4] = test system: allogeneic CTL response against P815 cells; experiment: Murine allograft model, CTL killing of P815 target cells by splenocytes; format: in vivo, C57BL/6J mice; details: Cyclosporin A 100 μg ip daily from day −2; for allograft (CTL) response: 5HT antagonists 200 μg/injection tail vein days 6 and 8, sacrifice day 14 (FIGS. 13, 14); for allogeneic killing response: serotonin-specific compounds 300 μg/injection tail vein days 5 and 7, sacrifice day 14 (FIGS. 18A, 18B)
# Protocol: The in vivo validation screen used was an art-recognized murine allogeneic rejection model as described in Zhan et al., 2000. For this assay, a complete MHC miss-match system was employed wherein 5×10^6 P815 cells ([H-2^d] DBA/2 mastocytoma) were injected into the peritoneal cavity of C57BL/6J (H-2^b) mice on day 0 of the experiment. These mice typically generate a strong cytotoxic T lymphocyte (CTL) reaction in response to P815 cells. Following the initial P815 cell inoculation, the mice were allowed to develop a CTL response (this usually takes about 10-14 days). […] Mice were then sacrificed on day 14 of the experiment as indicated in the figures; and the allogeneic CTL response was assayed as described previously (Tretiakova et al., 2000, Nature Biotechnology 18:984-988). The primary spleen cells from the treated and untreated animals were used in the direct CTL readout. Freshly obtained primary spleen cells were incubated with the [^3H] labeled target cells (P815 cells) at 100:1, 50:1, 25:1, and 12.5:1 ratios for 3.5 hours at 37° C. and harvested using a PHD harvester. The percentage of specific killing was determined using the formula % kill=(S−E)/S, where S is the amount of the DNA retained by the target cells in the absence of the effector cells and E is the amount of retained DNA in the presence of the effector cells (expressed in counts per minute; cpm).
# This is an art-recognized model of allograft […] rejection based on that described by […]. (2000). In this model, there is a complete MHC mismatch between the P815 cells (H-2^d) and the C57BL6 mouse (H-2^b), thus ensuring an aggressive immune response. The data disclosed in FIG. 13, depicts results of experiments that included 6 treatment groups, each group consisting of three mice. Each mouse received 5×10^6 P815 cells injected into the peritoneal cavity on day 0 of the study. The first group was an untreated control group, which was used to establish the baseline response of the mice against the allogeneic stimulus. These mice, without any further treatments, were sacrificed, as were the other treatment groups, on day 14 of the study and their splenocytes assayed for target-specific killing of the P815 cells.
# The average kill observed for the untreated group was about 45% at an effector to target ratio of 100:1. The second group was treated with risperidone, a 5HT-2 antagonist, administered via a tail vein bolus injection (200 μg/injection) on days 6 and 8 of the study. The timing of the drug administration was selected to ensure that the T cells were fully activated prior to the drug treatment. The third group was treated with propanolol, a 5HT-1 antagonist. All of the 5HT receptor antagonist-treated groups were treated as described for the risperidone-treated group. The fourth group was treated chronically with CyclosporinA. The Cyclosporin A was administered ip at a dosage of 100 μg/injection starting two days prior to the onset of the study, i.e., at day −2, and the injections were continued on a daily basis for the duration of the study.
# Finally, studies conducted in vivo using the CD8-dependent allograft rejection model, in which P815 cells (a rapidly growing cell line taken from a mastocytoma in a DBA mouse), were expanded and used to create a robust rejection response in a C57BL6 mouse. In this study the mice received 5×10^6 P815 cells injected into their peritoneal cavity on day 0 of the study. The first group was an untreated control group (naïve animals), used to acquire the baseline response of the mice against the allogeneic stimulus. The positive controls were treated with the allogeneic cells without any further treatments. These animals were used to assess the induced allogeneic response against the P815 cells. […]
compound,measurement,setting,value
COc1ccccc1N1CCN(CCN(C(=O)C2CCCCC2)c2ccccn2)CC1 [WAY 100635],in vitro activation / proliferation of (helper) T cells,[1],significantly inhibits the activation response
Cc1cc2c(cc1Cl)N(C(=O)Nc1ccc(Oc3cccnc3C)nc1)CC2 [SB 242084],growth / proliferation of RPMI 8226 cells,[2],strong inhibition of growth
same,chromatin condensation / fragmentation (apoptosis),RPMI-8226 cells,"induced programmed cell death comparable to that induced by the topoisomerase I inhibitor, camptothecin"
same,chromatin condensation / fragmentation (apoptosis),RPMI-8226 cells; listed as SB242084,condensed and fragmented chromatin
same,activation / proliferative response,[3],inhibit the activation response at pharmacologically relevant concentrations
same,inhibitory profile on mitogenic stimulation,"[1]; 1 μg/ml ConA, harvest 72 h, drug added at time=0 or 48 hours (FIG. 12)",retained the complete inhibitory profile
same,activation / proliferative response,[1],inhibit the activation response at pharmacologically relevant concentrations
CC(O)C(C)OC(=O)[C@@H]1C[C@@H]2c3cccc4c3c(cn4C(C)C)C[C@H]2N(C)C1 (stereo partly drawn) [LY 53857],activation / proliferative response,[3],inhibit the activation response at pharmacologically relevant concentrations
same,activation / proliferative response,[1],inhibit the activation response at pharmacologically relevant concentrations
CC[C@@]1(O)C(=O)OCc2c1cc1n(c2=O)Cc2cc3ccccc3nc2-1 [camptothecin],chromatin condensation / fragmentation (apoptosis),RPMI-8226 cells,Extensive chromatin condensation and nuclear fragmentation
Cn1ccc2cc3c(cc21)CCN3C(=O)Nc1cccnc1 [SB 206553],activation / proliferative response,[3],inhibit the activation response at pharmacologically relevant concentrations
same,allograft (CTL) response,[4],Two of the treated mice had the allogeneic response completely suppressed; also recorded: Two of the three treated mice inhibited the allograft response to a degree equivalent to that observed in the Cyclosporin A-treated animals
same,allograft (CTL) response,[4]; listed as SB206553,inhibited the allograft response to varying degrees
same,allogeneic killing response,[4],striking
same,activation / proliferative response,[1],inhibit the activation response at pharmacologically relevant concentrations
same,in vitro activation / proliferation of (helper) T cells,[1],immediate cessation of proliferation
NNCCc1ccccc1 [phenelzine],drug concentration giving significant inhibition,"[1]; 0.1 and 1 μg/ml ConA (FIGS. 5A, 5B)",10 to 100 µM
same,drug concentration at which full inhibition occurs,[1]; higher ConA stimulation (10 μg/ml),100 to 400 µM
same,proliferative response,"[1]; highest ConA dose 10 μg/ml, harvest 72 hours (FIG. 5C)",no inhibition was observed
same,stimulation of ConA-activated human PBLs,"[1]; reagents at 400 μM, time course (FIG. 4)",completely shut down the stimulation
"N[C@@H](Cc1ccc(Cl)cc1)C(=O)O (racemic) [PCPA, para-chlorophenylalanine]",mitogenic response,"[1]; human PBLs, 1 μg/ml ConA, PCPA titration (FIG. 3)",inhibits the mitogenic response in a dose-dependent manner
OC(CN1CCN(c2cccc(Cl)c2)CC1)C(c1ccccc1)c1ccccc1 (stereo not drawn) [BRL 15572],activation / proliferative response,[3],had no effect upon the proliferative response
same,activation / proliferative response,[1],had no effect upon the proliferative response
CSc1ccc2c(c1)C(N1CCN(C)CC1)Cc1ccccc1S2 (stereo not drawn) [methiothepin],growth / proliferation of RPMI 8226 cells,[2],strong inhibition of growth
same,activation / proliferative response,[3],inhibit the activation response at pharmacologically relevant concentrations
same,activation / proliferative response,[1],inhibit the activation response at pharmacologically relevant concentrations
CC[C@@H](CO)NC(=O)[C@@H]1C=C2c3cccc4c3c(cn4C)C[C@H]2N(C)C1 [methysergide],allograft (CTL) response,[4],inhibited the allograft response to varying degrees
same,allogeneic killing response,[4],complete inhibition of the induced killing response; also recorded: abrogated the allogeneic killing response; also recorded: inhibition profile was striking
N[C@@H](Cc1c[nH]c2ccc(O)cc12)C(=O)O [5-hydroxytryptophan],proliferation response,"[1]; 25 μM, in the absence of PCPA (FIG. 3)",significantly enhanced the proliferation response
same,reversal of PCPA inhibition of mitogenic response,[1]; added to PCPA-inhibited cells (FIG. 3),this inhibition can be reversed
